Data reported in DBAASP.
Converted amounts (≈) assume the structure as drawn. Blank lines part the entries; values can stand above or below the compound they belong to.

Legend:
Assay in all cases: ≥ marks a high value that may be exact or a test limit, other limits are often not marked, values filed in µg/mL are converted to µM
[1] = system: Staphylococcus epidermidis ATCC 12228
[2] = system: Staphylococcus epidermidis 154
[3] = system: Pseudomonas aeruginosa ATCC 27853
[4] = system: Pseudomonas aeruginosa ATCC 9027
Escherichia coli AB94012 = system: Escherichia coli AB94012
[5] = system: Staphylococcus aureus AB6538
[6] = system: Escherichia coli ATCC 25922
[7] = system: Escherichia coli ATCC 2592
[8] = system: Shigella flexneri ATCC 203
Staphylococcus aureus = system: Staphylococcus aureus
[9] = system: Proteus vulgaris ATCC 6380
[10] = system: Micrococcus luteus ATCC 9341
[11] = system: Candida albicans ATCC 36232
[12] = system: Staphylococcus aureus ATCC 6538
[13] = system: Staphylococcus haemolyticus
[14] = system: Salmonella enterica subsp. enterica serovar Paratyphi A
Klebsiella pneumoniae = system: Klebsiella pneumoniae
Citrobacter freundii = system: Citrobacter freundii
[15] = system: Lacticaseibacillus rhamnosus 7469
Escherichia coli UB1005 = system: Escherichia coli UB1005
[16] = system: Streptococcus agalactiae CICC 10465
[17] = system: Salmonella enterica subsp. enterica serovar Typhimurium C77-31
[18] = system: Salmonella enterica subsp. enterica serovar Typhimurium ATCC 14028
[19] = system: Streptococcus thermophilus YM-C
[20] = system: Staphylococcus aureus ATCC 29213
[21] = system: Salmonella enterica subsp. enterica serovar Pullorum ATCC 7913
Escherichia coli 078 = system: Escherichia coli 078
Streptococcus agalactiae = system: Streptococcus agalactiae
[22] = system: Staphylococcus aureus ATCC 25923
[23] = system: Escherichia coli KACC 1039
[24] = system: Pseudomonas aeruginosa KACC 10259
[25] = system: Enterococcus faecalis KACC 11304
[26] = system: Staphylococcus aureus KACC 10196
[27] = system: Klebsiella pneumoniae KCTC 2242
[28] = system: Candida albicans KACC 30071
[29] = system: Bacillus subtilis KACC 10196
[30] = system: Staphylococcus aureus NBRC 12732
[31] = system: Escherichia coli NBRC 14237
[32] = system: Saccharomyces cerevisiae NBRC 10217

MIC [15]: ≥ 64 µM
MIC [3]: > 64 µM
MIC (Escherichia coli UB1005): ≥ 64 µM
MIC [16]: ≥ 64 µM
MIC [17]: ≥ 64 µM
MIC [1]: > 64 µM
MIC [18]: > 64 µM
MIC [19]: ≥ 64 µM
MIC [20]: > 64 µM
MIC [21]: ≥ 64 µM
MIC [6]: > 64 µM
MIC (Escherichia coli 078): ≥ 64 µM
MIC (Streptococcus agalactiae): ≥ 64 µM
MIC [22]: > 64 µM
SMILES: CC[C@H](C)[C@H](NC(=O)CNC(=O)[C@@H](NC(=O)[C@@H](N)CC(C)C)[C@@H](C)CC)C(=O)N[C@H](C(=O)N[C@@H](CC(=O)O)C(=O)NCC(=O)N[C@H](C(=O)N[C@@H](CCCCN)C(=O)N[C@@H](CCC(=O)O)C(=O)N[C@@H](CCCN=C(N)N)C(=O)N[C@@H](CCCCN)C(=O)N[C@@H](CCCCN)C(=O)N[C@@H](CCCN=C(N)N)C(=O)N[C@@H](CCCN=C(N)N)C(=O)N[C@@H](CCCN=C(N)N)C(N)=O)C(C)C)[C@@H](C)CC [LIGIIDGVKERKKRRR]

MIC [23]: 1 µM (≈ 1.94 µg/mL)
MIC [24]: 1 µM (≈ 1.94 µg/mL)
MIC [25]: 4 µM (≈ 7.76 µg/mL)
MIC [26]: 4 µM (≈ 7.76 µg/mL)
MIC [27]: 1 µM (≈ 1.94 µg/mL)
MIC [28]: 4 µM (≈ 7.76 µg/mL)
MIC [29]: 1 µM (≈ 1.94 µg/mL)
SMILES: CC[C@H](C)[C@H](NC(=O)[C@H](CO)NC(=O)[C@@H](NC(=O)[C@H](CCCCN)NC(=O)[C@H](Cc1ccccc1)NC(=O)[C@@H]1CCCN1C(=O)[C@H](CCCCN)NC(=O)[C@H](CCCCN)NC(=O)[C@H](Cc1ccccc1)NC(=O)[C@@H](NC(=O)[C@H](CCCCN)NC(=O)[C@H](Cc1c[nH]c2ccccc12)NC(=O)[C@@H](N)CCCN=C(N)N)[C@@H](C)CC)[C@@H](C)CC)C(=O)N[C@@H](Cc1cnc[nH]1)C(=O)N[C@@H](CC(C)C)C(N)=O [RWKIFKKPFKISIHL]

MIC [30]: 3.12 µM (≈ 6.25 µg/mL)
MIC [31]: 3.12 µM (≈ 6.25 µg/mL)
MIC [32]: 12.5 µM (≈ 25 µg/mL)
SMILES: CC(C)C[C@H](NC(=O)[C@H](CO)NC(=O)[C@H](CO)NC(=O)[C@H](CCCN=C(N)N)NC(=O)[C@H](CCCN=C(N)N)NC(=O)[C@H](CCCN=C(N)N)NC(=O)[C@H](CO)NC(=O)[C@H](CC(C)C)NC(=O)[C@H](Cc1c[nH]c2ccccc12)NC(=O)[C@@H](N)Cc1c[nH]c2ccccc12)C(=O)N[C@@H](Cc1ccccc1)C(=O)N[C@@H](Cc1ccc(O)cc1)C(=O)N[C@@H](Cc1c[nH]c2ccccc12)C(=O)N[C@@H](CCCN=C(N)N)C(=O)O [WWLSRRRSSLFYWR]

Further lines, the compound ahead of its results:

SMILES: CC(C)C[C@H](NC(=O)[C@H](Cc1ccc(O)cc1)NC(=O)[C@H](Cc1ccc(O)cc1)NC(=O)CNC(=O)[C@H](Cc1c[nH]c2ccccc12)NC(=O)[C@H](CO)NC(=O)[C@H](CO)NC(=O)[C@H](Cc1c[nH]c2ccccc12)NC(=O)[C@H](CC(C)C)NC(=O)[C@H](CCCCN)NC(=O)[C@@H](NC(=O)[C@@H](NC(=O)[C@H](CC(C)C)NC(=O)[C@@H](N)CC(=O)O)[C@@H](C)O)[C@@H](C)O)C(=O)NCC(=O)N[C@@H](CCCCN)C(=O)N[C@@H](CCCCN)C(=O)N[C@@H](C)C(=O)N[C@@H](CCCN=C(N)N)C(=O)N[C@@H](Cc1c[nH]c2ccccc12)C(=O)N[C@@H](CC(N)=O)C(=O)N[C@@H](CC(C)C)C(=O)N[C@@H](CCCCN)C(=O)N[C@@H](Cc1cnc[nH]1)C(=O)N1CCC[C@H]1C(=O)N[C@@H](Cc1ccc(O)cc1)C(=O)N[C@H](C(=O)N[C@@H](CCC(N)=O)C(=O)N[C@@H](Cc1ccccc1)C(=O)O)C(C)C [DLTTKLWSSWGYYLGKKARWNLKHPYVQF]
MIC [1]: 12.5 µM (≈ 44.8 µg/mL)
MIC [2]: 25 µM (≈ 89.7 µg/mL)

SMILES: CC[C@H](C)[C@H](NC(=O)[C@H](CCCCN)NC(=O)[C@@H]1CCCN1C(=O)[C@H](CC(C)C)NC(=O)[C@@H](NC(=O)[C@H](CCCCN)NC(=O)[C@H](CCCCN)NC(=O)[C@H](CC(C)C)NC(=O)[C@@H](NC(=O)[C@H](CCCCN)NC(=O)[C@H](CCCCN)NC(=O)[C@H](CC(C)C)NC(=O)[C@H](CC(C)C)NC(=O)[C@H](CCCCN)NC(=O)[C@H](CC(C)C)NC(=O)[C@@H](N)Cc1ccccc1)C(C)C)C(C)C)C(=O)N[C@@H](Cc1ccccc1)C(=O)N[C@@H](CCCCN)C(N)=O [FLKLLKKVLKKVLPKIFK]
MIC [3]: 5.72 µM (≈ 12.5 µg/mL)
MIC [4]: 5.72 µM (≈ 12.5 µg/mL)
MIC (Escherichia coli AB94012): 2.86 µM (≈ 6.25 µg/mL)
MIC [5]: 2.86 µM (≈ 6.25 µg/mL)
MIC [6]: 2.86 µM (≈ 6.25 µg/mL)

SMILES: CC(C)[C@H](NC(=O)[C@H](CCCCN)NC(=O)[C@@H](N)CCCCN)C(=O)N[C@H](C(=O)N[C@@H](Cc1ccccc1)C(=O)N[C@@H](CCCCN)C(=O)N[C@@H](Cc1ccccc1)C(=O)N[C@@H](CCCCN)C(=O)N[C@@H](Cc1ccccc1)C(=O)N[C@@H](CCCCN)C(N)=O)C(C)C [KKVVFKFKFK]
MIC [7]: 2.4 µM (≈ 3.12 µg/mL)
MIC [8]: 2.4 µM (≈ 3.12 µg/mL)
MIC (Staphylococcus aureus): 4.81 µM (≈ 6.25 µg/mL)
MIC [9]: ≥ 77 µM
MIC [10]: 0.601 µM (≈ 0.779 µg/mL)
MIC [4]: 2.4 µM (≈ 3.12 µg/mL)
MIC [11]: 0.601 µM (≈ 0.779 µg/mL)
MIC [1]: 0.601 µM (≈ 0.779 µg/mL)
MIC [12]: 2.4 µM (≈ 3.12 µg/mL)

SMILES: CC(C)C[C@H](NC(=O)[C@H](CCCCN)NC(=O)[C@H](CC(C)C)NC(=O)[C@H](CCCCN)NC(=O)[C@H](CS)NC(=O)[C@H](CC(C)C)NC(=O)[C@H](Cc1c[nH]c2ccccc12)NC(=O)CNC(=O)[C@H](CCCCN)NC(=O)[C@H](CS)NC(=O)[C@@H]1CCCN1C(=O)[C@@H](N)CCCCN)C(=O)N[C@@H](CCCN=C(N)N)C(=O)O [KPCKGWLCKLKLR]
MIC [13]: 1.91 µM (≈ 3 µg/mL)
MIC [14]: 3.81 µM (≈ 6 µg/mL)
MIC (Klebsiella pneumoniae): 3.81 µM (≈ 6 µg/mL)
MIC (Citrobacter freundii): 7.63 µM (≈ 12 µg/mL)
